Experimental data as given in paper PMC3426641 (Biochemistry, 2012).
Read-outs that look alike come from different tables or passages of the source.

How the values were obtained:
[1] = target: T1, Eis_Msm (Mycobacterium smegmatis, UniProt A0QY29); assay: Number of acetylations of AGs by Eis_Msm; format: biochemical; settings: number of acetylations per AG; UV-Vis assay and LCMS, 25 °C, pH 8.0
[2] = target: T2, Eis_Mtb (Mycobacterium tuberculosis, UniProt P9WFK7); assay: biochemical
[3] = target: T1, Eis_Msm
[4] = target: T1, Eis_Msm; assay: biochemical
[5] = target: T2, Eis_Mtb
[6] = target: T2, Eis_Mtb; assay: Inhibition of Eis_Mtb NEO acetylation; format: biochemical
[7] = target: T1, Eis_Msm; assay: Inhibition of Eis_Msm NEO acetylation; format: biochemical; settings: for mode of inhibition: Eis_Msm, against NEO
[8] = test system: NC[C@@H]1O[C@H](O[C@H]2[C@@H](O)[C@H](O[C@@H]3[C@@H](O)[C@H](N)C[C@H](N)[C@H]3O[C@H]3O[C@H](CO)[C@@H](O)[C@H](O)[C@H]3N)O[C@@H]2CO)[C@H](N)[C@@H](O)[C@@H]1O; assay: purified protein, by the assay type; settings: other: Eis_Msm, fixed AcCoA 0.1 mM, varying AG, 25 °C, pH 8.0
[9] = test system: NC[C@H]1O[C@H](O[C@H]2[C@H](O)[C@@H](O[C@H]3O[C@H](CO)[C@@H](O)[C@H](N)[C@H]3O)[C@H](N)C[C@@H]2N)[C@H](N)C[C@@H]1O; assay: purified protein, by the assay type; settings: pH 8.0
[10] = test system: CN[C@@H]1[C@@H](O)[C@@H](O[C@@H]2[C@@H](O)[C@H](O[C@H]3OC(CN)=CC[C@H]3N)[C@@H](N)C[C@H]2N)OC[C@]1(C)O; assay: purified protein, by the assay type; settings: other: Eis_Msm, pH 8.0
[11] = test system: NC[C@@H]1O[C@H](O[C@H]2[C@@H](O)[C@H](O[C@@H]3[C@@H](O)[C@H](N)C[C@H](N)[C@H]3O[C@H]3O[C@H](CN)[C@@H](O)[C@H](O)[C@H]3N)O[C@@H]2CO)[C@H](N)[C@@H](O)[C@@H]1O; assay: purified protein, by the assay type; settings: other: Eis_Msm, pH 8.0
[12] = test system: NC[C@H]1O[C@H](O[C@H]2[C@H](O)[C@@H](O)[C@H](N)C[C@@H]2N)[C@H](N)[C@@H](O)[C@@H]1O; assay: purified protein, by the assay type; settings: pH 8.0
[13] = test system: CCN[C@@H]1C[C@H](N)[C@@H](O[C@H]2OC(CN)=CC[C@H]2N)[C@H](O)[C@H]1O[C@H]1OC[C@](C)(O)[C@H](NC)[C@H]1O; assay: purified protein, by the assay type; settings: other: Eis_Msm, pH 8.0
[14] = test system: NCC[C@H](O)C(=O)N[C@@H]1C[C@H](N)[C@@H](O[C@H]2O[C@H](CN)[C@@H](O)[C@H](O)[C@H]2O)[C@H](O)[C@H]1O[C@H]1O[C@H](CO)[C@@H](O)[C@H](N)[C@H]1O; assay: purified protein, by the assay type; settings: pH 8.0
[15] = Eis_Msm, fixed AG 0.5 mM, varying AcCoA, 25 °C, pH 8.0
[16] = other: Eis_Msm, fixed AcCoA 0.1 mM, varying AG, 25 °C
[17] = fixed AcCoA 0.1 mM, varying AG, 25 °C
[18] = random sequential mechanism, 25.0 °C

T2 sequence (P9WFK7 whole entry): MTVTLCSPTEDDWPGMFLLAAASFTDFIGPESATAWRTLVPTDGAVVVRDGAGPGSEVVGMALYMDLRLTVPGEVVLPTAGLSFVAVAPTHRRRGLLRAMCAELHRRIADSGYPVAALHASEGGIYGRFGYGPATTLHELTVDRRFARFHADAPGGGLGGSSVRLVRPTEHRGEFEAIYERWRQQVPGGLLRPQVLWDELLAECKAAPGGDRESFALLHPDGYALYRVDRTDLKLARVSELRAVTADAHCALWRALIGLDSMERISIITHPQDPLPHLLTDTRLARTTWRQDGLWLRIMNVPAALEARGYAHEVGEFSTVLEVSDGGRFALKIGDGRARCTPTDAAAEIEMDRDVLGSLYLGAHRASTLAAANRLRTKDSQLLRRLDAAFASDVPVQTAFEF

For `CN[C@@H]1C[C@H](N)[C@@H](O)[C@H](O[C@H]2O[C@H](CO)[C@H](O)[C@@H]3O[C@@]4(O[C@@H]23)O[C@H]([C@H](N)CO)[C@H](O)[C@H](O)[C@H]4O)[C@H]1O` [HYG, hygromycin], the “level of acetylation by Eis from M. smegmatis” value (“level of acetylation by Eis” below) [1] was “mono-acetylated”.
In the case of `CN[C@@H]1[C@@H](O[C@H]2O[C@H](CO)[C@@H](N)[C@H](O)[C@H]2O)OC2C[C@@H](N)[C@@H](O[C@H]3[C@H](O)[C@@H](O)[C@H](N)C[C@@H]3N)OC2[C@@H]1O` (stereo partly shown) [APR, apramycin], the “level of acetylation by Eis” value [1] is reported as “di-acetylated”.
`[H]/N=C(/N)N[C@H]1[C@H](O)[C@@H](O)[C@H](O[C@@H]2O[C@@H](C)[C@](O)(C=O)[C@H]2O[C@@H]2O[C@@H](CO)[C@H](O)[C@@H](O)[C@@H]2NC)[C@@H](N/C(N)=N\[H])[C@@H]1O` [STR, streptomycin] was tested, and the “level of acetylation by Eis” value [1] was “not modified”.
`CN[C@@H]1[C@H](O)[C@H](NC)[C@H]2O[C@@]3(O)C(=O)C[C@@H](C)O[C@H]3O[C@@H]2[C@H]1O` [SPT, spectinomycin] was tested, and the “level of acetylation by Eis” value [1] was “not modified”.
In the case of `CN[C@@H]1[C@@H](O)[C@@H](O[C@@H]2[C@@H](O)[C@H](O[C@H]3OC(CN)=CC[C@H]3N)[C@@H](N)C[C@H]2N)OC[C@]1(C)O` [SIS, sisomicin], the Kd [2] is reported as 340 ± 140 µM, the “kcat,AcCoA” value ([3]; 25 °C, pH 8.0) is reported as 0.620 ± 0.063 s⁻¹ and the “level of acetylation by Eis” value [1] is reported as “tri-acetylated”. It also gave a Kd [4] of 179 ± 54 µM.
For kanamycin A, the “kcat,AcCoA” value [3, 15] was 0.398 ± 0.060 s⁻¹, the “kcat,AG” value ([3]; Eis_Msm, fixed AcCoA 0.1 mM, varying AG, 25 °C, pH 8.0) was 0.108 ± 0.005 s⁻¹ and the “kcat (microscopic rate constant of acetylation)” value [5] was 0.16 ± 0.07 s⁻¹. The “kcat,AcCoA” value [5] was 0.094 ± 0.004 s⁻¹ and the “level of acetylation by Eis” value [1] was “di-acetylated”.
For `CC(=O)SCCNC(=O)CCNC(=O)[C@H](O)C(C)(C)COP(=O)(O)OP(=O)(O)OC[C@H]1O[C@@H](n2cnc3c(N)ncnc32)[C@H](O)[C@@H]1OP(=O)(O)O` [AcCoA, acetyl-coenzyme A], the “Kd,AcCoA(E) fold smaller than Kd,AcCoA(E•AG)” value ([3]; Eis_Msm, AG = KAN) was “approximately 17 fold”.
Compound `[H]/N=C(\N/C(=N/[H])NCCCCCCNC(=N)NC(=N)Nc1ccc(Cl)cc1)Nc1ccc(Cl)cc1` [chlorhexidine (1), chlorhexidine] has a Ki [6] of 0.105 ± 0.024 µM, an IC50 [7] of 1.85 µM and a Ki [7] of 0.47 ± 0.15 µM. The mode of inhibition ([7]; listed as 1) was “AG-competitive mode” and the mode of inhibition ([7]; listed as Chlorhexidine (1)) was “competitive inhibitor of NEO”.
In the case of `CCN[C@@H]1C[C@H](N)[C@@H](O[C@H]2OC(CN)=CC[C@H]2N)[C@H](O)[C@H]1O[C@H]1OC[C@](C)(O)[C@H](NC)[C@H]1O` [NET, netilmicin], the Kd [2] is reported as 31 ± 10 µM, the “kcat,AcCoA” value [3, 15] is reported as 0.819 ± 0.121 s⁻¹ and the “level of acetylation by Eis” value [1] is reported as “di-acetylated”. For the same compound, the Kd [4] was 108 ± 35 µM.
`NC[C@@H]1O[C@H](O[C@H]2[C@@H](O)[C@H](O[C@@H]3[C@@H](O)[C@H](N)C[C@H](N)[C@H]3O[C@H]3O[C@H](CO)[C@@H](O)[C@H](O)[C@H]3N)O[C@@H]2CO)[C@H](N)[C@@H](O)[C@@H]1O` [PAR, paromomycin] was tested, and the “kcat,AG” value [5] was 0.15 ± 0.01 s⁻¹, the Km ([5]; read-out: Km,AG) was 96 ± 20 µM and the “level of acetylation by Eis” value [1] was “tri-acetylated”.
Work on “Eis_Msm (Mycolicibacterium smegmatis MC2 155)” yielded a Km [8] of 153 ± 55 µM, a kcat [8] of 0.035 ± 0.006 s⁻¹ and a Km [9, 16] of 131 ± 22 µM. For the same compound, the kcat [9, 16] was 0.267 ± 0.016 s⁻¹, the Km [10, 17] was 82 ± 8 µM and the kcat [10, 17] was 0.206 ± 0.006 s⁻¹. For the same compound, the kcat [10, 18] was 0.85 ± 0.25 s⁻¹, the Km [11, 17] was 314 ± 77 µM and the kcat [11, 18] was greater than 1 s⁻¹. The Km [12, 16] was 359 ± 101 µM, the kcat [12, 16] was 0.176 ± 0.027 s⁻¹ and the Km [13, 17] was 197 ± 30 µM. The kcat [13, 17] was 0.835 ± 0.057 s⁻¹, the kcat [13, 18] was 1 ± 0.4 s⁻¹ and the Km [14, 16] was 251 ± 55 µM. For the same compound, the kcat ([14]; other: Eis_Msm, random sequential mechanism, 25.0 °C) was greater than 0.3 s⁻¹.
In the case of `NC[C@@H]1O[C@H](O[C@H]2[C@@H](O)[C@H](O[C@@H]3[C@@H](O)[C@H](N)C[C@H](N)[C@H]3O[C@H]3O[C@H](CN)[C@@H](O)[C@H](O)[C@H]3N)O[C@@H]2CO)[C@H](N)[C@@H](O)[C@@H]1O` [NEO, neomycin B], the Kd [2] is reported as 75 ± 41 µM, the “kcat,AcCoA” value ([3]; 25 °C, pH 8.0) is reported as 0.546 ± 0.065 s⁻¹ and the “level of acetylation by Eis” value [1] is reported as “tri-acetylated”. The Kd [4] was greater than 1000 µM.
For `NC[C@H]1O[C@H](O[C@H]2[C@H](O)[C@@H](O[C@H]3O[C@H](CO)[C@@H](O)[C@H](N)[C@H]3O)[C@H](N)C[C@@H]2N)[C@H](N)C[C@@H]1O` [TOB, tobramycin], the “level of acetylation by Eis” value [1] was “tetra-acetylated”.
`NC[C@H]1O[C@H](O[C@H]2[C@H](O[C@@H]3O[C@H](CO)[C@@H](O)[C@H]3O)[C@@H](O)[C@H](N)C[C@@H]2N)[C@H](N)[C@@H](O)[C@@H]1O` [RIB, ribostamycin] was tested, and the “level of acetylation by Eis” value [1] was “tri-acetylated”.
`NC[C@H]1O[C@H](O[C@H]2[C@H](O)[C@@H](O)[C@H](N)C[C@@H]2N)[C@H](N)[C@@H](O)[C@@H]1O` [NEA, neamine] was tested, and the Kd [2] was 95 ± 50 µM, the “level of acetylation by Eis” value [1] was “tri-acetylated” and the Kd [4] was 141 ± 60 µM.
“Eis_Mtb (Mycobacterium tuberculosis H37Rv)” showed a Km ([9]; 25.0 °C) of 116 ± 17 µM, a kcat ([9]; 25.0 °C) of 0.21 ± 0.01 s⁻¹ and a Km ([12]; 25.0 °C) of 137 ± 57 µM. The kcat ([12]; 25.0 °C) was 0.064 ± 0.01 s⁻¹, the Km ([14]; 25.0 °C) was 113 ± 35 µM and the kcat ([14]; 25.0 °C) was 0.03 ± 0.004 s⁻¹.
For `NCC[C@H](O)C(=O)N[C@@H]1C[C@H](N)[C@@H](O[C@H]2O[C@H](CN)[C@@H](O)[C@H](O)[C@H]2O)[C@H](O)[C@H]1O[C@H]1O[C@H](CO)[C@@H](O)[C@H](N)[C@H]1O` [AMK, amikacin], the Kd [2] was 32 ± 14 µM, the “kcat,AcCoA” value [3, 15] was 0.142 ± 0.026 s⁻¹ and the “level of acetylation by Eis” value [1] was “tri-acetylated”. The Kd [4] was greater than 1000 µM.
